Results taken from patent US8747810B2, “Compositions and methods for imaging tissues, organs and tumors” (President and Fellows of Harvard College, priority 2009, dated 2014).

Target: T1, σ1 receptor (Cavia porcellus, UniProt Q60492)
T1 construct: The membranes were prepared from guinea pig brain (minus cerebellum) as described above; from tissue; host or cells: guinea pig brain (minus cerebellum) membranes
Experiment: σ1 receptor competition binding assay, [3H]-(+)-pentazocine
Parameters: species or system guinea pig
Conditions: not given
Method: […] See, Mol. Neuropharmacol. 1993, 3, 117-126.
The membranes were prepared from guinea pig brain (minus cerebellum) as described above and stored at −70° C. Twelve concentrations of the nonradioactive rhenium complexes ranging from 1×10^−11 to 1×10^−3 and protein samples (0.15 mg of membrane protein) were incubated with 5 nM [^3H]-(+)-pentazocine in a total volume of 0.25 mL of Tris-HCl (50 mM, pH 8.0). Incubations were carried out for 120 min at 25° C. All assays were terminated by dilution with 5 mL of ice-cold Tris-HCl (10 mM), pH 8.0, and solution were filtered through glass-fiber filters (Whatman GF/F; presoaked in 0.5% polyethyleneimine for 30 min at 25° C.). Filters were then washed three times with 5 mL of ice-cold Tris-HCl (50 mM, pH 8.0), and counted in Hionic-Fluor cocktail (Packard, Groningen, the Netherlands). The corresponding IC50 values were determined with Origin 6.0 software (OriginLab, Northampton, Mass.) and were used for the calculation of the apparent Ki values with the Cheng-Prusoff equation. See, Biochem. Pharmacol. 1973, 22, 3099-3108.

T1 sequence (Q60492 whole entry): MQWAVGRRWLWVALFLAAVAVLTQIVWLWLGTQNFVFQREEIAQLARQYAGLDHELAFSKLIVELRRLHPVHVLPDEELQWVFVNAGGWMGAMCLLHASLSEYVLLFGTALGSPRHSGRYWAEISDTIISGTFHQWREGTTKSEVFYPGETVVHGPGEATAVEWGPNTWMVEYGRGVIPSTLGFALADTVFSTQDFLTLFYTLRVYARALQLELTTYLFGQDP

**Q.** With `CCCN(CCCCCC[N+]12CC[S][Re-]13(=[O])[S]CC[N]3C(=O)C2)C1CCc2cccc(OC)c2C1` (centres unmarked) [Re-45] as the compound, how does the Ki read?
**A.** 41 ± 3.58 nM

**Q.** With `O=C1C[N+]2(CCCCCCCN3CCC(c4ccccc4)CC3)CC[S][Re-]23(=[O])[S]CC[N]13` (centres unmarked) [Re-41] as the compound, how does the Ki read?
**A.** 7.6 ± 0.67 nM

**Q.** For `O=C1C[S][Re-]23(=[O])[S]CC[N+]2(CCCCCCCN2CCC(c4ccccc4)CC2)CC[N]13` (centres unmarked) [Re-33], which Ki is on record?
**A.** 22.9 ± 1.78 nM

Same assay, conditions: quantity not named in table head; methods calculate apparent Ki (Cheng-Prusoff); read-out: σ-1

**Q.** With `O=C1CN(CCCCCCN2Cc3ccccc3C2)CC[S][Re]2(=[O])[S]CC[N]12` (centres unmarked) [Re-44] as the compound, how does the Ki read?
**A.** 64 ± 5.9 nM

**Q.** `O=C1C[S][Re-]23(=[O])[S]CC[N+]2(CCCCCCN2CCC(c4ccccc4)CC2)CC[N]13` (centres unmarked) [Re-32] was tested. Which Ki did it give?
**A.** 29.7 ± 4.31 nM

**Q.** `COc1cc2c(cc1OC)CN(CCCCCC[N+]13Cc4ccccc4[O][Re-2]1(=[C]=O)(=[C]=O)(=[C]=O)[n+]1ccccc1C3)C2` (centres unmarked) [Re-L13] was tested. Which Ki did it give?
**A.** 5310 ± 973 nM

**Q.** How did the Ki turn out when `C[N+]1(C)CC[N+]2(CCCCCCN3CCC(c4ccccc4)CC3)Cc3ccccc3[O][Re-2]12(=[C]=O)(=[C]=O)=[C]=O` (centres unmarked) [Re-L16b] was run?
**A.** 9.12 ± 0.14 nM

**Q.** Which Ki does the source give for `COc1cc2c(cc1OC)CN(CCCCCC[N+]13Cc4ccccc4[O][Re-2]1(=[C]=O)(=[C]=O)(=[C]=O)[n+]1ccccc1C3)CC2` (centres unmarked) [Re-L12] here?
**A.** 4400 ± 280 nM

**Q.** How did the Ki turn out when `CCCN(CCCCCCN1CC[S][Re]2(=[O])[S]CC[N]2C(=O)C1)C1CCc2c(cccc2OC)C1` (centres unmarked) [Re-47] was run?
**A.** 64.3 ± 1.27 nM

Target: T2, σ2 receptor (Rattus norvegicus, UniProt Q5U3Y7)
T2 construct: Rat liver membranes were prepared from male Sprague-Dawley rat livers as previously described; from tissue; host or cells: rat (Sprague-Dawley) liver membranes
T2 sequence (Q5U3Y7 1-176): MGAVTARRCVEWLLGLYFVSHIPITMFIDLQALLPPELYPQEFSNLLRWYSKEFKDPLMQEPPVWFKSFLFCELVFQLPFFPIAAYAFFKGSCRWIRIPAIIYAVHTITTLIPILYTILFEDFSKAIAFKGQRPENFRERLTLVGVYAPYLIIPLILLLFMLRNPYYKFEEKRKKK
Experiment: σ2 receptor competition binding assay, [3H]-DTG, rat liver membranes
Conditions: not given
Method: Rat liver membranes were prepared from male Sprague-Dawley rat livers as previously described (Eur. J. Pharmacol.-Mol. Pharmacol. Sect. 1994, 268, 9-18). The in vitro σ2 receptor binding affinities of rhenium coordinated complexes were determined in a competition assay using rat livers and [^3H]-DTG (31 Ci/mmol, NEN Life Science Inc., Cambridge, Mass.) as radioligand in the presence of 10 μM 1-pyrrolidinylethyl 3,4-dichlorophenylacetate oxalate (ACT915 oxalate) to mask σ1 receptors (Bioorg. & Med. Chem. Lett. 2000, 10, 17-18). Competition assays were performed with twelve concentrations of the nonradioactive rhenium complexes ranging from […] to 1×10^−3 and protein samples (0.15 mg of membrane protein) in a total volume of 0.25 mL of Tris-HCl (50 mM, pH 8.0) for 120 min at 25° C. All other manipulations and data analysis were performed as described vide supra for the σ1—receptor assays.

**Q.** Which Ki does the source give for `CCCN(CCCCCC[N+]12CC[S][Re-]13(=[O])[S]CC[N]3C(=O)C2)C1CCc2cccc(OC)c2C1` (centres unmarked) [Re-45] here?
**A.** 442 ± 106 nM

**Q.** Which Ki does the source give for `O=C1C[N+]2(CCCCCCCN3CCC(c4ccccc4)CC3)CC[S][Re-]23(=[O])[S]CC[N]13` (centres unmarked) [Re-41] here?
**A.** 21.25 ± 0.19 nM

**Q.** Which Ki does the source give for `O=C1C[S][Re-]23(=[O])[S]CC[N+]2(CCCCCCCN2CCC(c4ccccc4)CC2)CC[N]13` (centres unmarked) [Re-33] here?
**A.** 188 ± 18.8 nM

Same assay, conditions: quantity not named in table head; methods calculate apparent Ki (Cheng-Prusoff); read-out: σ-2

**Q.** Which Ki does the source give for `O=C1CN(CCCCCCN2Cc3ccccc3C2)CC[S][Re]2(=[O])[S]CC[N]12` (centres unmarked) [Re-44] here?
**A.** 61 ± 3.91 nM

**Q.** How did the Ki turn out when `O=C1C[S][Re-]23(=[O])[S]CC[N+]2(CCCCCCN2CCC(c4ccccc4)CC2)CC[N]13` (centres unmarked) [Re-32] was run?
**A.** 223 ± 6.54 nM

**Q.** `COc1cc2c(cc1OC)CN(CCCCCC[N+]13Cc4ccccc4[O][Re-2]1(=[C]=O)(=[C]=O)(=[C]=O)[n+]1ccccc1C3)C2` (centres unmarked) [Re-L13] was tested. Which Ki did it give?
**A.** 35.6 ± 2.83 nM

**Q.** Which Ki does the source give for `C[N+]1(C)CC[N+]2(CCCCCCN3CCC(c4ccccc4)CC3)Cc3ccccc3[O][Re-2]12(=[C]=O)(=[C]=O)=[C]=O` (centres unmarked) [Re-L16b] here?
**A.** 6420 ± 387 nM

**Q.** With `COc1cc2c(cc1OC)CN(CCCCCC[N+]13Cc4ccccc4[O][Re-2]1(=[C]=O)(=[C]=O)(=[C]=O)[n+]1ccccc1C3)CC2` (centres unmarked) [Re-L12] as the compound, how does the Ki read?
**A.** 3.37 nM

**Q.** `CCCN(CCCCCCN1CC[S][Re]2(=[O])[S]CC[N]2C(=O)C1)C1CCc2c(cccc2OC)C1` (centres unmarked) [Re-47] was tested. Which Ki did it give?
**A.** 244 ± 8.56 nM

Target: D2 receptors (Homo sapiens, UniProt P14416)
Experiment: D2 receptor affinity
Type: binding
Conditions: not given

Sequence of D2 receptors (P14416 whole entry): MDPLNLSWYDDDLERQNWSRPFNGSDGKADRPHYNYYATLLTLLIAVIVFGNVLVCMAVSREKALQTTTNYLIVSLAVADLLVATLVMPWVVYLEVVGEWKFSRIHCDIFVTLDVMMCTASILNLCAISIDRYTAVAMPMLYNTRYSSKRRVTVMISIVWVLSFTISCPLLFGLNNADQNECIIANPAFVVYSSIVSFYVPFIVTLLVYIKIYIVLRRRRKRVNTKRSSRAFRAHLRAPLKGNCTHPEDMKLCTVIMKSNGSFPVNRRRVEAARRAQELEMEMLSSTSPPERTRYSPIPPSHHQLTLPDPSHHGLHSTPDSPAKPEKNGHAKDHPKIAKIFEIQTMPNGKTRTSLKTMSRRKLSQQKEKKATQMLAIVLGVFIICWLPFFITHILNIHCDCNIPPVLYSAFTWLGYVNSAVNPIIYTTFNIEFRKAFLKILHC

**Q.** For `CCCN(CCCCCC[N+]12CC[S][Re-]13(=[O])[S]CC[N]3C(=O)C2)C1CCc2cccc(OC)c2C1` (centres unmarked) [Re-45], which Ki is on record?
**A.** 1200 nM

Target: T3, 5HT1A receptor (Rattus norvegicus, UniProt P19327)
T3 construct: hippocampal homogenates that were prepared from Sprague Dawley rat hippocampus; from tissue; host or cells: rat (Sprague-Dawley) hippocampus membranes
T3 sequence (P19327 1-422): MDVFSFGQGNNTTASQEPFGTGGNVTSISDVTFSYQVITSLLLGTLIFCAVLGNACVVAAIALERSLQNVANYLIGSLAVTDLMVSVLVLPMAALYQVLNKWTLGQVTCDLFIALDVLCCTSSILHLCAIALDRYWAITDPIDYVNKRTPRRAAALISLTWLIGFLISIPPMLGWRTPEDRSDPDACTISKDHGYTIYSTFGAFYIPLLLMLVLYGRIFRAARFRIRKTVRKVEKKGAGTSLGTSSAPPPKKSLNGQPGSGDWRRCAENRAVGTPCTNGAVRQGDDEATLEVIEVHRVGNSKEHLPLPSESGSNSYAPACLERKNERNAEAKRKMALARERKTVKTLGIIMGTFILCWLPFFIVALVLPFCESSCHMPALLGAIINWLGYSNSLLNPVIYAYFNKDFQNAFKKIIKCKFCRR
Experiment: 5HT1A receptor competition binding assay, [3H]-8-OH-DPAT, rat hippocampus
Conditions: not given
Method: The in vitro 5HT1A binding affinities of rhenium coordinated complexes were determined in a competition assay using rat hippocampus and high-affinity 5HT1A-ligand [^3H]-8-OH-DPAT (135 Ci/mmol, NEN Life Science Inc., Cambridge, Mass.). See, Brain Res. 1995, 673, 217-225.
Male Sprague-Dawley rats (weighing 150-170 g) were sacrificed using anesthesia agent isoflurane. The brains were rapidly removed, and hippocampus, frontal cortex, hypothalamus, and striatum were hand-dissected on ice and stored at −70° C. Tissue was thawed at room temperature and homogenized using a Brinkmann Polytron tissue disrupter in 50 volumes (wt/vol) of ice-cold 50 mM Tris-HCl buffer (pH 7.4). The suspension was centrifuged twice at 27,000 g for 20 min at 4° C. The membrane pellets were resuspended in 50 volumes of (wt/vol) Tris-HCl buffer and incubated at 37° C. for 20 min in a water bath, before a final centrifugation step (27,000 g; 20 min; 4° C.). The final tissue pellets were stored at −70° C. until assayed.
Twelve concentrations of the nonradioactive rhenium complexes ranging from 1×10^−11 to 1×10^−4 and protein samples (0.15 mg of membrane protein) were incubated with 1.5 nM [^3H]-8-OH-DPAT in a total volume of 0.25 mL of Tris-HCl (50 mM, pH 7.4, 10 mM MgSO4). Incubations were carried out for 60 min at 25° C. All assays were terminated by dilution with 5 mL of ice-cold Tris-HCl (10 mM), pH 7.4, and solution were filtered through glass-fiber filters (Whatman GF/F; presoaked in 0.5% polyethyleneimine for 30 min at 25° C.). Filters were then washed three times with 5 mL of ice-cold Tris-HCl (50 mM, pH 7.4), and counted in Hionic-Fluor cocktail (Packard, Groningen, the Netherlands). The corresponding IC50 values were determined with Origin 6.0 software (OriginLab, Northampton, Mass.) and were used for the calculation of the apparent Ki values with the Cheng-Prusoff equation. See, Biochem. Pharmacol. 1973, 22, 3099-3108.
Rhenium complexes were synthesized by the reaction of [ReBr(CO)3(C4H8O)]2 with the final ligands in acetonitrile at room temperature. The in vitro 5-HT1A binding affinities of complexes Re(CO)3-L1-L9 were determined in competitive receptor binding assay using hippocampal homogenates that were prepared from Sprague Dawley rat hippocampus and the high-affinity [^3H]-8-OH-DPAT as the 5HT1A specific ligand.
The in vitro affinity of Re(CO)3-L complexes for the 5-HT1A receptors were assessed by their ability to compete with the high affinity 5HT1A radioligand [^3H]-8-OH-DPAT.

**Q.** How did the Ki turn out when `CCCN(CCCCCC[N+]12CC[S][Re-]13(=[O])[S]CC[N]3C(=O)C2)C1CCc2cccc(OC)c2C1` (centres unmarked) [Re-45] was run?
**A.** 1.21 ± 0.13 nM

Same assay, conditions: quantity not named in table head; methods calculate apparent Ki (Cheng-Prusoff); read-out: 5HT1A

**Q.** How did the Ki turn out when `C[N+]1(C)CC[N+]2(CCCCCCN3CCC(c4ccccc4)CC3)Cc3ccccc3[O][Re-2]12(=[C]=O)(=[C]=O)=[C]=O` (centres unmarked) [Re-L16b] was run?
**A.** 439 ± 121 nM

**Q.** Which Ki does the source give for `COc1cc2c(cc1OC)CN(CCCCCC[N+]13Cc4ccccc4[O][Re-2]1(=[C]=O)(=[C]=O)(=[C]=O)[n+]1ccccc1C3)CC2` (centres unmarked) [Re-L12] here?
**A.** 940 ± 216 nM

**Q.** With `CCCN(CCCCCCN1CC[S][Re]2(=[O])[S]CC[N]2C(=O)C1)C1CCc2c(cccc2OC)C1` (centres unmarked) [Re-47] as the compound, how does the Ki read?
**A.** 15.4 ± 4.06 nM
